The data set can be described thus: gradient 5% acetonitrile 3 min, to 50% in 2 min, to 85% in 15 min, held 3 min, 100 µL/min. To be noted: column: Zorbax Extend-C18 2.1 x 50 mm; eluents: water / acetonitrile, 0.1% formic acid. An outline of the steps: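 Retention times come from adduct peaks that were picked computationally and then checked by hand. The standards, pure and pooled in mixtures of ~100 molecules, were run on a Zorbax Extend-C18 column (2.1 × 50 mm, 1.8 μm) at 100 μL/min with water and acetonitrile, each with 0.1% formic acid. Detection was by quadrupole time-of-flight mass spectrometry in positive and negative ionization mode, with a dead volume of 40 μL and a dwell volume of 900 μL.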
The compound `Cc1sc2ncn3c(=O)n(CC(=O)N4CCc5ccccc5C4)nc3c2c1C` had an RP-LC retention time of 894 s.

Turning to `Cc1ccc(S(=O)(=O)N2CCC(C(=O)NC(C)C(=O)N3CCCc4ccccc43)CC2)cc1` (stereo not drawn), the RP-LC retention time came to 902 s.

The compound `COc1cc(OC)cc(-c2nnc(Cc3nc(-c4ccc(Cl)cc4)no3)o2)c1` showed an RP-LC retention time of 1110 s.

`CC(C)C(NC(=O)NCc1ccc(F)cc1)C(=O)N1CCc2ccccc21` (stereo not drawn) yielded an RP-LC retention time of 917 s.

Take `CCOc1ccccc1NC(=O)C1(C)Oc2cccnc2N(C)C1=O` (stereo not drawn): the RP-LC retention time was found to be 929 s.

In turn, `CCn1c(CNC(=O)C2CCC2)nc2c1CN(S(=O)(=O)c1ccc(Cl)cc1)CC2` gave an RP-LC retention time of 692 s.

Regarding `O=C(Nc1ccc(F)cc1)C1(c2cccs2)CCOCC1`, the RP-LC retention time was determined as 798 s.

`COc1ccc(-n2c(=O)c3sccc3n(Cc3nc(-c4ccc(F)cc4)no3)c2=O)cc1` showed an RP-LC retention time of 964 s.

Take `CN(C)S(=O)(=O)c1ccc(C(=O)Oc2coc(CSc3nccn3C)cc2=O)cc1`: the RP-LC retention time turned out to be 566 s.

In turn, `Cc1sc(-c2cc(C(F)(F)F)[nH]n2)cc1S(=O)(=O)N1CCN(c2ccccc2F)CC1` registered an RP-LC retention time of 1170 s.

The compound `CN1C(=O)[C@H]2CN(Cc3cccc(C#N)c3)C[C@H]2C1=O` displayed an RP-LC retention time of 531 s.

Consider `CCOc1ccccc1NC(=O)N1C[C@@H]2CN(S(=O)(=O)c3ccc(C)cc3)C[C@H](C1)O2`, for which the RP-LC retention time worked out at 915 s.

As for `Cc1ccc(Cl)cc1N1CCN(C(=O)c2ccc(Cn3cncn3)cc2)CC1`, the RP-LC retention time was found to be 877 s.

For `COc1ccc(NC(=O)N(C)CCc2noc(COc3ccc(F)cc3)n2)cc1OC`, the RP-LC retention time was 801 s.

`O=C(O)c1cc2ccccc2cc1Nc1ccccc1` came in with an RP-LC retention time of 1140 s.

In turn, `CCc1ccc(NC(=O)C2CCN(c3c(C(=O)N(CC)CC)cnc4snc(C)c34)CC2)cc1` yielded an RP-LC retention time of 687 s.

`CCOc1ccc(Cl)cc1S(=O)(=O)N1CCC(C(=O)N2CCCC2)CC1` registered an RP-LC retention time of 820 s.

Compound `CCc1c(C2CCN(C(=O)Nc3ccc(F)c(Cl)c3)CC2)noc1N` showed an RP-LC retention time of 926 s.

The compound `CCOc1ccc(-c2noc(CSc3nccn3-c3ccccc3)n2)cc1OC` registered an RP-LC retention time of 856 s.

As for `Cc1cc(C)n(-c2nc3cc(Cl)ccc3nc2N2CCN(c3ccccn3)CC2)n1`, the RP-LC retention time is 754 s.

For the compound `CC(C)NC(=O)c1ccc(OCC2CCN(C(=O)c3ccc(C(F)(F)F)cc3)CC2)cc1`, the RP-LC retention time was found to be 935 s.

For the compound `CCCn1nc2ccc(S(=O)(=O)N3CCOCC3)cn2c1=O`, the RP-LC retention time came to 696 s.

`COc1cccc(CC(=O)Nc2ccc3c(c2)Sc2ncccc2C(=O)N3C(C)C)c1` gave an RP-LC retention time of 855 s.

Turning to `CCC(C(=O)NCCOC)n1nc(C)c2sc3ccccc3c2c1=O` (stereo not drawn), the RP-LC retention time came out at 826 s.

In turn, `O=C(NCc1nc(-c2ccc(Cl)cc2)no1)NC1CCCCC1` registered an RP-LC retention time of 916 s.

As for `COCc1c(C(=O)O)nnn1-c1cccc(OC)c1`, the RP-LC retention time stood at 668 s.

Compound `CN(C)C(=O)CC1CCOC2(CCN(C(=O)CCn3cnnn3)CC2)C1` (stereo not drawn) returned an RP-LC retention time of 604 s.

On to `Cc1oc(-c2ccc(Cl)cc2)nc1Cn1nnc(C(=O)Nc2cc(F)ccc2F)c1C`, for which the RP-LC retention time is 1310 s.

For `Cc1nncn1C1CCN(S(=O)(=O)c2ccccc2F)CC1`, the RP-LC retention time was 654 s.

The compound `COc1ccc(NS(=O)(=O)c2cc3n(c2)CCN(CC(C)C)C3=O)cc1` came in with an RP-LC retention time of 745 s.

On to `Cc1cc(C(=O)Nc2nc3c(s2)CN(C(=O)c2cccn(C)c2=O)CC3)no1`, for which the RP-LC retention time was determined as 595 s.

Take `CC(C)c1ccc(NC(=O)Cn2cnc3nc(N4CCC(C(=O)NC5CC5)CC4)sc3c2=O)cc1`: the RP-LC retention time amounted to 748 s.

`Cc1ccc(=O)n(-c2ccccc2)c1`: the RP-LC retention time came to 739 s.

The values are drawn from the METLIN SMRT retention time set (Domingo-Almenara et al. 2019).
